These molecules were tested against human recombinant H-PGDS (Homo sapiens, UniProt O60760) (assay: Fluoresecence Intensity h-PGDSTBA Enzyme Assay). Conditions: IC50, 5.0 μM PGH2, 2.5 mM L-Glutathione, 10 min preincubation, 4-parameter fit, highest inhibitor concentration typically 1 μM.
human recombinant H-PGDS, sequence (O60760 whole entry): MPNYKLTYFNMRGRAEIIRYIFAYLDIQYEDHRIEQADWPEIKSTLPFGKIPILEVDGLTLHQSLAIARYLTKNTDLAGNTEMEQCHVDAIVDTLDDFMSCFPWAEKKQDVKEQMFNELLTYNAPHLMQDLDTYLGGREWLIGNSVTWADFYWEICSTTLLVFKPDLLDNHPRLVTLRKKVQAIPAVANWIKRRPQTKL

Compound	IC50 [nM]
O=C(NC1CCN(C(COc2ccc(F)cc2)c2ccccc2)CC1)c1cnc(-c2cccc(F)c2)nc1 (centres unmarked) [Example 44, N-{1-[2-(4-Fluorophenoxy)-1-phenylethyl]piperidin-4-yl}-2-(3-fluorophenyl)pyrimidine-5-carboxamide]	16.2
COC(=O)c1cccc(-c2ncc(C(=O)NC3CCN(CC(F)(F)F)CC3)cn2)c1 [Example 125, Methyl 3-[5-({[1-(2,2,2-trifluoroethyl)piperidin-4-yl]amino}carbonyl)pyrimidin-2-yl]benzoate]	270
Cc1cc(CN2CCC(NC(=O)c3cnc(-c4cccc(F)c4)nc3)C2=O)ccc1F (centres unmarked) [Example 86, N-[1-(4-Fluoro-3-methylbenzyl)-2-oxopyrrolidin-3-yl]-2-(3-fluorophenyl)pyrimidine-5-carboxamide]	6.43
O=C(NC1CCN(C(COc2cccc(Cl)c2)c2ccccc2)CC1)c1cnc(-c2cccc(F)c2)nc1 (centres unmarked) [Example 41, N-{1-[2-(3-Chlorophenoxy)-1-phenylethyl]piperidin-4-yl}-2-(3-fluorophenyl)pyrimidine-5-carboxamide]	10.2
Cc1nc(-c2ccccc2)ncc1C(=O)NC1CCN(C(C)C)CC1 [Example 1, N-(1-Isopropylpiperidin-4-yl)-4-methyl-2-phenylpyrimidine-5-carboxamide]	162
CC(C)N1CCC(NC(=O)c2cnc(-c3ccccc3)nc2)CC1 [Example 13, N-(1-Isopropylpiperidin-4-yl)-2-phenyl-pyrimidine-5-carboxamide]	6.34
COc1cccc(OCC(c2ccccc2)N2CCC(NC(=O)c3cnc(-c4cccc(F)c4)nc3)CC2)c1 (centres unmarked) [Example 39, 2-(3-Fluorophenyl)-N-{1-[2-(3-methoxyphenoxy)-1-phenylethyl]piperidin-4-yl}pyrimidine-5-carboxamide]	4.44
CC(C)CN1CCC(NC(=O)c2cnc(-c3ccccc3)nc2)CC1 [Example 11, N-(1-Isobutylpiperidin-4-yl)-2-phenyl-pyrimidine-5-carboxamide]	0.381
CC(C)(C)OC(=O)N1C[C@@H]2[C@H](C1)[C@H]2NC(=O)c1cnc(-c2cccc(F)c2)nc1 [Example 71, tert-Butyl (1R,5S,6s)-6-({[2-(3-fluorophenyl)pyrimidin-5-yl]carbonyl}amino)-3-azabicyclo[3.1.0]hexane-3-carboxylate]	0.355
COc1cccc(OC)c1CN1CCC(NC(=O)c2cnc(-c3ccccc3)nc2O)CC1 [Example 23, N-[1-(2,6-Dimethoxybenzyl)piperidin-4-yl]-4-hydroxy-2-phenyl-pyrimidine-5-carboxamide]	≥ 1000
O=C(NC1CCN(Cc2ccccn2)CC1)c1cnc(-c2ccccc2)nc1O [Example 21, 4-Hydroxy-2-phenyl-N-[1-(pyridin-2-ylmethyl)piperidin-4-yl]pyrimidine-5-carboxamide]	992
O=C(NC1CCN(C(COc2c(F)ccc(Cl)c2F)c2ccccc2)CC1)c1cnc(-c2cccc(F)c2)nc1 (centres unmarked) [Example 33, N-{1-[2-(3-Chloro-2,6-difluorophenoxy)-1-phenylethyl]piperidin-4-yl}-2-(3-fluorophenyl)pyrimidine-5-carboxamide]	15.5
O=C(NC1CCN(Cc2ccccn2)CC1)c1cnc(-c2ccccc2)nc1 [Example 8, 2-Phenyl-N-[1-(pyridin-2-ylmethyl)piperidin-4-yl] pyrimidine-5-carboxamide]	0.461
Cc1cc(OCC(c2ccccc2)N2CCC(NC(=O)c3cnc(-c4cccc(F)c4)nc3)CC2)ccc1F (centres unmarked) [Example 45, N-{1-[2-(4-Fluoro-3-methylphenoxy)-1-phenylethyl]piperidin-4-yl}-2-(3-fluorophenyl)pyrimidine-5-carboxamide]	14.2
CCOC(=O)N1CCC(NC(=O)c2cnc(-c3cc(F)ccc3F)nc2)CC1 [Example 74, Ethyl 4-({[2-(2,5-difluorophenyl)pyrimidin-5-yl]carbonyl}amino)piperidine-1-carboxylate]	3.2
CC(C)N1CCC(NC(=O)c2cnc(-c3ccccc3)nc2O)CC1 [Example 24, 4-Hydroxy-N-(1-isopropylpiperidin-4-yl)-2-phenyl pyrimidine-5-carboxamide]	≥ 1000
O=C(NC1CCN(Cc2ccccc2C(F)(F)F)C1=O)c1cnc(-c2cccc(F)c2)nc1 (centres unmarked) [Example 84, 2-(3-Fluorophenyl)-N-{2-oxo-1-[2-(trifluoromethyl)benzyl]pyrrolidin-3-yl}pyrimidine-5-carboxamide]	0.987
O=C(NC1CCN(C(COc2c(F)cccc2F)c2ccccc2)CC1)c1cnc(-c2cccc(F)c2)nc1 (centres unmarked) [Example 30, N-{1-[2-(2,6-Difluorophenoxy)-1-phenylethyl]piperidin-4-yl}-2-(3-fluorophenyl)pyrimidine-5-carboxamide]	6.55
CC(C)(C)OC(=O)N1C[C@H](NC(=O)c2cnc(-c3cccc(F)c3)nc2)[C@@H](F)C1 [Example 92, tert-Butyl (3S,4S)-3-fluoro-4-({[2-(3-fluorophenyl)pyrimidin-5-yl]carbonyl}amino)pyrrolidine-1-carboxylate]	2.87
O=C(NC1CCN(C(COc2cc(F)c(F)c(F)c2)c2ccccc2)CC1)c1cnc(-c2cccc(F)c2)nc1 (centres unmarked) [Example 50, 2-(3-Fluorophenyl)-N-{1-[1-phenyl-2-(3,4,5-trifluorophenoxy)ethyl]piperidin-4-yl}pyrimidine-5-carboxamide]	9.55
N#Cc1ccc(C(F)(F)F)nc1N1C[C@H](O)[C@H](NC(=O)c2cnc(-c3cccc(F)c3)nc2)C1 (relative stereo) [Example 100, Cis-N-{1-[3-Cyano-6-(trifluoromethyl)pyridin-2-yl]-4-hydroxypyrrolidin-3-yl}-2-(3-fluorophenyl)pyrimidine-5-carboxamide]	4.47
CCOC(=O)N1CCC(NC(=O)c2cnc(-c3ccccc3)nc2C)CC1 [Example 6, Ethyl 4-{[(4-methyl-2-phenylpyrimidin-5-yl)carbonyl]amino)} piperidine-1-carboxylate]	6.54
O=C(NC1CCN(Cc2ccccn2)CC1)c1cnc(-c2cccc(CO)c2)nc1 [Example 159, 2-[3-(Hydroxymethyl)phenyl]-N-[1-(pyridin-2-ylmethyl)piperidin-4-yl]pyrimidine-5-carboxamide]	2040

Results, then the molecule that gave them:

IC50 [nM]	Compound
4.54	O=C(NC1CCN(Cc2ccc(OC(F)(F)F)cc2)CC1)c1cnc(-c2cccc(F)c2)nc1 [Example 36, 2-(3-Fluorophenyl)-N-{1-[4-(trifluoromethoxy)benzyl]piperidin-4-yl}pyrimidine-5-carboxamide]
0.355	O=C(NC1CCN(CC2CCCC2)CC1)c1cnc(-c2cccc(F)c2)nc1 [Example 66, N-[1-(Cyclopentylmethyl)piperidin-4-yl]-2-(3-fluorophenyl)pyrimidine-5-carboxamide]
0.489	Cc1ccccc1CN1CCC(NC(=O)c2cnc(-c3cccc(F)c3)nc2)CC1 [Example 62, 2-(3-Fluorophenyl)-N-[1-(2-methylbenzyl)piperidin-4-yl]pyrimidine-5-carboxamide]
2.08	COc1ccc(OCC(c2ccccc2)N2CCC(NC(=O)c3cnc(-c4cccc(F)c4)nc3)CC2)cc1 (centres unmarked) [Example 58, 2-(3-Fluorophenyl)-N-{1-[2-(4-methoxyphenoxy)-1-phenylethyl]piperidin-4-yl}pyrimidine-5-carboxamide]
30	O=C(NC1CCN(Cc2ccc(C(F)(F)F)cc2)CC1)c1cnc(-c2cccc(F)c2)nc1 [Example 67, 2-(3-Fluorophenyl)-N-{1-[4-(trifluoromethyl)benzyl]piperidin-4-yl}pyrimidine-5-carboxamide]
0.815	Cc1cc(C)c(C#N)c(N2CC(NC(=O)c3cnc(-c4cccc(F)c4)nc3)C2)n1 [Example 103, N-[1-(3-Cyano-4,6-dimethylpyridin-2-yl)azetidin-3-yl]-2-(3-fluorophenyl)pyrimidine-5-carboxamide]
0.364	O=C(NC1CN(c2cnc3ccccc3n2)C1)c1cnc(-c2cccc(F)c2)nc1 [Example 105, 2-(3-Fluorophenyl)-N-(1-quinoxalin-2-ylazetidin-3-yl)pyrimidine-5-carboxamide]
0.166	O=C(NC1CCN(CC(F)(F)F)CC1)c1cnc(-c2cccc(F)c2)nc1 [Example 27, 2-(3-Fluorophenyl)-N-[1-(2,2,2-trifluoroethyl)piperidin-4-yl]pyrimidine-5-carboxamide]
1	CN1CCc2nc(N3CC[C@H](NC(=O)c4cnc(-c5cccc(F)c5)nc4)C3)ncc2C1 [Example 78b, 2-(3-Fluorophenyl)-N-[(3S)-1-(6-methyl-5,6,7,8-tetrahydropyrido[4,3-d]pyrimidin-2-yl)pyrrolidin-3-yl]pyrimidine-5-carboxamide]
1.58	CC(=O)N1CC[C@@H](NC(=O)c2cnc(-c3cccc(F)c3)nc2)C1 [Example 88, N-[(3R)-1-Acetylpyrrolidin-3-yl]-2-(3-fluorophenyl)pyrimidine-5-carboxamide]
0.62	O=C(NC1CCN(CC2CC2)CC1)c1cnc(-c2cccc(F)c2)nc1 [Example 35, N-[1-(Cyclopropylmethyl)piperidin-4-yl]-2-(3-fluorophenyl)pyrimidine-5-carboxamide]
0.46	O=C(NC1CCN(c2ncc3c(n2)CCOC3)C1)c1cnc(-c2cccc(F)c2)nc1 (single isomer, unassigned) [Example 81b, N-(1-(7,8-Dihydro-5H-pyrano[4,3-d]pyrimidin-2-yl)pyrrolidin-3-yl)-2-(3-fluorophenyl)pyrimidine-5-carboxamide]
7.07	O=C(NC1CCN(Cc2ccc(C(F)(F)F)c(F)c2)CC1)c1cnc(-c2cccc(F)c2)nc1 [Example 37, 2-(3-Fluorophenyl)-N-{1-[3-fluoro-4-(trifluoromethyl)benzyl]piperidin-4-yl}pyrimidine-5-carboxamide]
0.595	O=C(NC1CCN(c2ncc3c(n2)CCOC3)CC1)c1cnc(-c2cccc(F)c2)nc1 [Example 76, N-[1-(7,8-Dihydro-5H-pyrano[4,3-d]pyrimidin-2-yl)piperidin-4-yl]-2-(3-fluorophenyl)pyrimidine-5-carboxamide]
6.57	CC(C)N1CCC(NC(=O)c2cnc(-c3cccc(F)c3)nc2)C1 (centres unmarked) [Example 87, 2-(3-Fluorophenyl)-N-(1-isopropylpyrrolidin-3-yl)pyrimidine-5-carboxamide]

Reference: US8067589B2, “Heterocyclic compounds useful in treating diseases and conditions” (Pfizer Inc, priority 2007, dated 2011)
